# Data: patent publication US20260373136A1, “A NOVEL DOSAGE REGIMEN USING LOW DOSES OF DONEPEZIL OR DERIVATIVE THEREOF FOR PREVENTING OR TREATING A COMPULSIVE DISORDER” (SORBONNE UNIVERSITE, priority 2022, published 2026)
# Key:
# [1] = Clinical observation of eating disorder behaviours and cognitions of anorexic patients treated with donepezil; format: in vivo, human
# Protocol: (§1) 6 anorexic patients were treated with donepezil: 5 of them with a daily dose according to the present invention and 1 with a higher dose (comparative).
# (§2) The studies were led in hospital. Each case is presented below.
# Patient #2 is a person who developed anorexia nervosa restricting type in adolescence. They were very restricted in the types of food they ate and could not eat food that was processed or high in sugar or fats. They exercised 3-4 hours a day. They were unable to reduce their exercising even minimally […] becoming flooded with debilitating anxiety. They were unable to eat enough to maintain a healthy weight. Their BMI was 18.5 kg/m^2 and was medically stable when they started donepezil.
# (§3) The treatment started with a daily dose of donepezil of 0.5 mg for 10 days then the daily dose was increased to 1 mg for 7 days then increased to 1.5 mg for 71 days (2 months and 10 days) then increased to 2 mg for 22 days and then increased to 2.5 mg and remains on this dose for 4 months and 18 days.
# Patient #3 is a person with a 20-year history of anorexia nervosa binge/purge type who had been in recovery for two years before relapsing following a relationship trauma. They were slowly losing weight and was bingeing and purging multiple times every evening. They also were waking up every morning at 4 am to exercise obsessively for hours. They were spending all their disposable income on binge foods and was slowly draining their savings. At times they were stealing food to binge on.
# The treatment started with a daily dose of donepezil of 0.5 mg for 10 days and then the daily dose was increased to 1 mg for 9 days and then increased to 1.5 mg for 17 days and then increased to 2 mg for 7 days and then increased to 2.5 mg for 16 days and then discontinued.
# (§4) The treatment started with a daily dose of donepezil of 0.5 mg for 13 days then the daily dose was increased to 0.75 mg for 9 days then increased to 1 mg for 17 days and then increased to 1.5 mg and remained at this dosage for a month then stopped for two months and then restarted with a daily dose of 1.5 mg that remains within 1 month and then discontinued.
# A patient who has suffered from anorexia nervosa during their second pregnancy. They have been vigilant about their caloric intake and body image since their adolescence. They also suffer from recurrent depression treated with venlafaxine 75 mg per day and a generalized anxiety disorder. Undernutrition worsened markedly, reaching a minimum BMI of 11 kg/m^2. The maximum lifetime BMI excluding pregnancy is 19.8 kg/m^2. The symptomatology is dominated by qualitative and quantitative food restriction and physical hyperactivity. There is a period of several months of hyperphagia and provoked vomiting. Neurocognitive executive functions are preserved, there is a high tolerance of delayed reward measured by Delay Discounting Task.
# Donepezil was taken at a rate of 2.5 mg per day for 2 months.
# A person with a 20-year history of anorexia nervosa-binge/purge subtype and a comorbid history or obsessive-compulsive disorder. They have been very symptomatic throughout their adolescence and went into a partial remission in early adulthood. Over the next 10 years, their symptoms waxed and waned and they had 2 major relapses that they had slowly recovered from. They were currently weight restored but following some environmental stresses, was starting to relapse. They were struggling with increasing eating disordered ruminations and cognitions, increasing body image distortions and dissatisfaction. They were becoming more rigid and restrictive in their eating. They also saw a rise in their obsessive-compulsive disorder symptoms.
# (§5) The treatment started with a daily dose of donepezil of 0.5 mg for 8 days and then the daily dose was increased to 1 mg for 9 days and then increased to 1.67 mg for 62 days and then increased to 2.5 mg.
# [2] = Yale-Brown Obsessive Compulsive Scale questionnaire (Y-BOCS) before and after treatment; format: in vivo, human; conditions: for OCD symptoms: Y-BOCS post vs pre-treatment; for Y-BOCS score, post treatment: 0-7 subclinical, 8-15 mild, 16-23 moderate, 24-31 severe, 32-40 extreme symptoms
# Protocol: as §1, §2, §3
# Patient #2 obsessive-compulsive disorders (OCD) symptoms have also been evaluated with the Yale-Brown Obsessive Compulsive Scale questionnaire (Y-BOCS) (available on https://pcl.psychiatry.uw.edu/wp-content/uploads/2021/12/YBOCS.pdf) before and after the treatment. The following scores have been obtained:
# The score obtained with questionnaire Y-BOCS is classified as follows: • 0-7: subclinical; 8-15: mild symptoms; 16-23: moderate symptoms; 24-31: severe symptoms; 32-40: extreme symptoms
# as §4
# Patient #4 obsessive-compulsive disorders (OCD) symptoms have also been evaluated with questionnaire Y-BOCS-before and after the treatment. The following scores have been obtained:
# as §5
# Patient #6 obsessive-compulsive disorders (OCD) symptoms have also been evaluated with questionnaire Y-BOCS-before and after the treatment.
# [3] = Patient #2, daily dose 0.5-2.5 mg, over the next 5 months
# [4] = Patient #3, daily dose 0.5-2.5 mg, within a month of starting
# [5] = Patient #6, daily dose 0.5 mg to 2.5 mg, over 3 months
compound,measurement,setting,value
COc1cc2c(cc1OC)C(=O)C(CC1CCN(Cc3ccccc3)CC1)C2 (centres unmarked) [donepezil],flexibility with eating,[1]; [3],able to be more flexible with their eating and incorporate a wider variety of foods
same,preoccupation with weight or appearance,[1]; [3],much less preoccupied with their weight or appearance
same,ruminations and compulsions to exercise,[1]; [3],decrease in ruminations and compulsions to exercise
same,exercise per day,"[1]; Patient #2, daily dose 0.5-2.5 mg, over the next 5 months, exercised 3-4 hours a day before",90 minutes a day
same,bingeing (and consequent purging),[1]; [4],able to reduce their bingeing (and consequent purging) significantly
same,stealing food,[1]; [4],stopped stealing food completely
same,maximum spending on binge foods,"[1]; Patient #3, daily dose 0.5-2.5 mg, within a month of starting, all disposable income before",≤ 5.00 $
same,flexibility with eating and eating disordered cognitions,"[1]; Patient #4, daily dose 1.5 mg, within a month",more flexible with their eating and less preoccupied with their eating disordered cognitions and urges to restrict and lose weight
same,flexibility with eating and weight after restart,"[1]; Patient #4, donepezil restarted for a month at 1.5 mg daily, improvements continued after discontinuing","more flexible with their eating, and they started to gain weight slowly"
same,eating disordered cognitions after stopping medication,"[1]; Patient #4, two months without donepezil after 1st month at 1.5 mg daily",increasing rigidity in their eating disordered cognitions
same,ease of eating,"[1]; Patient #5, 2.5 mg per day for 2 months, end of treatment period",began to eat more easily
same,eating disordered cognitions and ruminations,[1]; [5],significant decrease in their eating disordered cognitions and ruminations
same,intensity of body image distress,[1]; [5],reduction in the intensity of their body image distress
same,usefulness to treat anorexia and related compulsive behaviors,"[1]; low dose between 0.5 and 2.5 mg/day, clinical cases overall (conclusion)",useful to treat anorexia and related compulsive behaviors
same,OCD symptoms,"[2]; Patient #2, daily dose 0.5-2.5 mg",diminution of OCD symptoms
same,"Y-BOCS score, post treatment","[2]; Patient #2, daily dose 0.5-2.5 mg, pre-treatment score 32",22
same,OCD symptoms,"[2]; Patient #4, daily dose 0.5 to 1.5 mg",diminution of OCD symptoms
same,"Y-BOCS score, post treatment","[2]; Patient #4, daily dose 0.5 to 1.5 mg, pre-treatment score 28",16
same,OCD symptoms,"[2]; Patient #6, daily dose 0.5 mg to 2.5 mg",diminution of OCD symptoms
same,"Y-BOCS score, post treatment","[2]; Patient #6, daily dose 0.5 mg to 2.5 mg, pre-treatment score 28",17
